These compounds were tested against Thymidylate synthase (Mus musculus, UniProt P07607) (assay: Tested for inhibitory activity against thymidylate synthase of L1210 cells). Settings: read-out: Ki app.
Sequence of Thymidylate synthase (P07607 whole entry): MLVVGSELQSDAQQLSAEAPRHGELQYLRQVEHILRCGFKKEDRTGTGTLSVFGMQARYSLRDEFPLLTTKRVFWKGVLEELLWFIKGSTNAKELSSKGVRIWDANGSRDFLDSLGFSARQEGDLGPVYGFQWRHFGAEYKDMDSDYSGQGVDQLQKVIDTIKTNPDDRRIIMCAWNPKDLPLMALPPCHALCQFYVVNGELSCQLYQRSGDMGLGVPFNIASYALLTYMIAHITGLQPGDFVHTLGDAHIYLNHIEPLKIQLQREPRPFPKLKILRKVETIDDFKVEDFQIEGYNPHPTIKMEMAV
Format: cell-based
With `C#CCN(c1ccc(C(=O)N[C@@H](CCC(=O)NC(CCC(=O)O)c2nnn[nH]2)C(=O)O)cc1)C1CCc2cc3nc(C)nc(O)c3cc21` (stereo partly specified) the Ki was 0.2 nM.
Compound `C#CCN(c1ccc(C(=O)N[C@@H](CCCS(=O)(=O)c2nc[nH]n2)C(=O)O)cc1)[C@@H]1CCc2cc3nc(C)nc(O)c3cc21` has a Ki of 1200 nM.
In the case of `C#CCN(c1ccc(C(=O)N[C@@H](CCCS(=O)(=O)c2nc[nH]n2)C(=O)O)cc1)[C@H]1CCc2cc3nc(C)nc(O)c3cc21`, the Ki is reported as 0.71 nM.
In the case of `C#CCN(c1ccc(C(=O)N[C@@H](CCC(=O)N[C@H](CCC(=O)O)C(=O)O)C(=O)O)cc1)[C@@H]1CCc2cc3nc(C)[nH]c(=O)c3cc21`, the Ki is reported as 3.5 nM.
`C#CCN(c1ccc(C(=O)N[C@@H](CCC(=O)NC(CCC(=O)O)C(=O)O)C(=O)O)cc1)C1CCc2cc3nc(C)nc(O)c3cc21` (stereo partly specified) gave a Ki of 0.42 nM.
Compound `C#CCN(c1ccc(C(=O)N[C@@H](CCC(=O)N[C@H](CCC(=O)O)c2nnn[nH]2)C(=O)O)cc1)[C@@H]1CCc2cc3nc(C)[nH]c(=O)c3cc21` has a Ki of 2.1 nM.

Reference: ChEMBL document CHEMBL1133853, “Cyclopenta[g]quinazoline-based antifolates: the effect of the chirality at the 6-position on the inhibition of thymidylate synthase (TS)” (Bioorg Med Chem Lett, 2001)
